We go through six compounds from paper PMC3510433, “Adamantyl carboxamides and acetamides as potent human 11β-hydroxysteroid dehydrogenase type 1 inhibitors” (Bioorganic & Medicinal Chemistry, 2012).

The IC50 is the concentration that inhibits the measured activity by half. By half-life is commonly meant the time needed for the level to fall by half in the phase considered. A word on the Papp A→B: it is the apparent permeability from the apical to the basolateral side of a cell layer. What is called melting point is the temperature, or range, at which the solid turns liquid.

“Also recorded” adds a separate entry of the source. Marks after values point to notes of the source that are not given here.

Data set [1] addresses T1, human 11β-HSD1 (Homo sapiens, UniProt P28845).
T1 construct: expressed in transfected cells; host or cells: HEK-293 (human), stably transfected
As to the kind of experiment: 11β-HSD1 inhibition, human HEK-293 cell based assay (SPA). The following applies: for IC50: HEK-293 cells stably transfected with HSD11B1, mean of 3 measurements. On the procedure: 11β-HSD1 inhibition was measured in intact human HEK-293 cells to reveal the true inhibitory activity. Differences in observed effects for different compounds may reflect combinatorial factors including the ability to penetrate the cell membrane, the stability within the cell and the binding ability to the enzyme.
The cell-based assays were conducted on the human HEK-293 cell line stably transfected with the HSD11B1 gene.[28] 11β-HSD1 activity was determined by measuring the amount of tritiated product formed using a scintillation proximity assay (SPA).
Cells were incubated in 96-well micro-plates in the presence of tritiated cortisone substrate and the assay plates contained internal high and low controls to allow calculation of percentage inhibition. Each well of a 96-well culture plate was seeded with human 11β-HSD1 overexpressed HEK293 cells in 100 μL medium. When the cells were 80% confluent, the medium was removed from each well then 100 μL of fresh, serum-free, medium containing ^3H-cortisone (22 nM) and test compound in 1% DMSO was added. The control wells were also dispensed. […] The plate was incubated at 37 °C for 2 h, after which 50 μL of medium was removed from each well and transferred to a microplate containing 100 μL of a pre-incubated mixture of anti-cortisol antibody and SPA bead. The mixture was incubated with gentle shaking until equilibrium was reached, before transferring to a scintillation counter to establish the enzyme activity in each sample.
The compounds were initially tested at a concentration of 1 μM. Those compounds showing over 70% inhibition of 11β-HSD1 at 1 μM were subjected to an IC50 measurement. A Merck compound 544 was used as the reference compound in the assay (IC50 = 50 ± 20 nM).[19] The IC50 values are reported as the mean value of 3 measurements with variance less than 20%. IC50 values were calculated from the dose-response curve using Microsoft Excel add-in XLfit with a Four Parameter Logistic nonlinear regression model.

Data set [2] deals with T2, human cytochrome P450 1A2 (Homo sapiens, UniProt P05177).
T2 sequence (P05177 1-516): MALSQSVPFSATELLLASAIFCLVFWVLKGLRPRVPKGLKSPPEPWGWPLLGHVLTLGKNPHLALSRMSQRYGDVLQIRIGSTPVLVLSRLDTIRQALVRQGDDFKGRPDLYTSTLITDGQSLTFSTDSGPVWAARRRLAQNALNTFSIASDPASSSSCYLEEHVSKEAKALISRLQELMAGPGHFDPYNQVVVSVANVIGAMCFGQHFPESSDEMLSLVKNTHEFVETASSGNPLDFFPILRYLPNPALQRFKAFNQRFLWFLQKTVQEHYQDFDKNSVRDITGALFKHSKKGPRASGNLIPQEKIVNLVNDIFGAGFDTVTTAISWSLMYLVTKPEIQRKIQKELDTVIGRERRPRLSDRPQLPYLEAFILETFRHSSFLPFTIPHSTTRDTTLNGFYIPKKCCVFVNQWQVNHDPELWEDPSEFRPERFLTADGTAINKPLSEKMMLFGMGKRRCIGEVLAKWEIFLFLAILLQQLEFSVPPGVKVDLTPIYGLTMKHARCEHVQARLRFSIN
The experiment in a line: Inhibition of human cytochrome P450 1A2. The data set is classed as in vitro ADME. Conditions: for Percentage inhibition of 1A2: 10 μM; for IC50: mean value of two measurements. The text has this: (§1) To identify potential problems with these compounds interfering with the metabolism of other drugs, compounds 3, 4, 15 and 41 were studied for their inhibition of the key human cytochrome P450 enzymes: 1A2, 2C9, 2C19, 2D6, 3A4-BFC (7-benzyloxy-4-(trifluoromethyl)coumarin) and 3A4-BQ (7-benzyloxyquinoline) (Table 6).

For data set [3], the target named is human cytochrome P450 2C9 (Homo sapiens, UniProt P11712). The experiment in a line: Inhibition of human cytochrome P450 2C9. Conditions: for Percentage inhibition of 2C9: 10 μM; for IC50: mean value of two measurements. The class given is in vitro ADME.
Chain of human cytochrome P450 2C9 (P11712 whole entry): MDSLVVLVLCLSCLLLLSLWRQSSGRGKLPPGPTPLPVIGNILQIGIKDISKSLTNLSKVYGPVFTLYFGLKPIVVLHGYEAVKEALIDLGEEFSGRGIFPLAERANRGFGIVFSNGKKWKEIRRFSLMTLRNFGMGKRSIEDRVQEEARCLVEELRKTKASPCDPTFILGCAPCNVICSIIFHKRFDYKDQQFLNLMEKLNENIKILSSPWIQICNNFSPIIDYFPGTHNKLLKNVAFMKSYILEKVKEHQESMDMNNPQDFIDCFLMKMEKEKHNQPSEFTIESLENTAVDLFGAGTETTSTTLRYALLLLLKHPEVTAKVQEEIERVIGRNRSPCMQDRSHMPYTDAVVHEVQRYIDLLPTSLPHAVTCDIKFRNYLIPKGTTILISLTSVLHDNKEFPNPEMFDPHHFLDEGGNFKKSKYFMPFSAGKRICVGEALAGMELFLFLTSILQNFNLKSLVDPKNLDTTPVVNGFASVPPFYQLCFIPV
Source text: as §1

Data set [4] has as its target human cytochrome P450 2C19 (Homo sapiens, UniProt P33261). As to the kind of experiment: Inhibition of human cytochrome P450 2C19. The class given is in vitro ADME. The following applies: for Percentage inhibition of 2C19: 10 μM; for IC50: mean value of two measurements.
Source text: as §1

The target of data set [5] is human cytochrome P450 2D6 (Homo sapiens, UniProt P10635). The experiment in a line: Inhibition of human cytochrome P450 2D6. The data set is classed as in vitro ADME. Conditions: for Percentage inhibition of 2D6: 10 μM; for IC50: mean value of two measurements.
Chain of human cytochrome P450 2D6 (P10635 whole entry): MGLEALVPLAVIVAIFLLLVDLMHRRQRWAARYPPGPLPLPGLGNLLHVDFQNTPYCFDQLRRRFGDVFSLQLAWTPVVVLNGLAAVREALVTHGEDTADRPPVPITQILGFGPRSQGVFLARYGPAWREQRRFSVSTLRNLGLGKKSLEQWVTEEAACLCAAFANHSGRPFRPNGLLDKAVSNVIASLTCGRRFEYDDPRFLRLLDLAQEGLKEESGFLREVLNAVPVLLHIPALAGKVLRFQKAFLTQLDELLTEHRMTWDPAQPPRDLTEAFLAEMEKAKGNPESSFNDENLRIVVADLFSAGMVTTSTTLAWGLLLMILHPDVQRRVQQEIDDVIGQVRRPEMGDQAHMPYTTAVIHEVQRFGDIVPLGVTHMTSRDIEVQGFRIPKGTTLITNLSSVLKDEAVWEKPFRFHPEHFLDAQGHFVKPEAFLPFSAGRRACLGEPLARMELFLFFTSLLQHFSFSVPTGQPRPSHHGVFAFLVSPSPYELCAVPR
Source text: as §1

For data set [6], the target named is human cytochrome P450 3A4-BFC (Homo sapiens, UniProt P08684). The experiment in a line: Inhibition of human cytochrome P450 3A4-BFC (7-benzyloxy-4-(trifluoromethyl)coumarin). Conditions: mean value of two measurements. The data set is classed as in vitro ADME.
Chain of human cytochrome P450 3A4-BFC (P08684 whole entry): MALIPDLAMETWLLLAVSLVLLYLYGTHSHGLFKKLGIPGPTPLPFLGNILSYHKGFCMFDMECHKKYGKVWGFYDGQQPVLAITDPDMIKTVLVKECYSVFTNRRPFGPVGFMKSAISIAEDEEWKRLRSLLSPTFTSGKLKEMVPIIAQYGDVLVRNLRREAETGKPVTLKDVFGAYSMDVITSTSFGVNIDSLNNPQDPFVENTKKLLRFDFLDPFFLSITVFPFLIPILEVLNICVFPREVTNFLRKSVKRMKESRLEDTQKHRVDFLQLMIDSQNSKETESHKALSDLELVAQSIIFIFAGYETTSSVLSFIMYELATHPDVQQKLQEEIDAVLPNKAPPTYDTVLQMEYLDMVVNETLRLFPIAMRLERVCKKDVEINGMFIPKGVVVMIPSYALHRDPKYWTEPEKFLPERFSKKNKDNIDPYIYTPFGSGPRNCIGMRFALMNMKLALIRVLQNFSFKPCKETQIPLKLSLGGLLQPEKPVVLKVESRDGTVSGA
Source text: as §1

In data set [7] the target is human cytochrome P450 3A4-BQ (Homo sapiens, UniProt P08684). The experiment in a line: Inhibition of human cytochrome P450 3A4-BQ (7-benzyloxyquinoline). The class given is in vitro ADME. Conditions: for Percentage inhibition of 3A4-BQ: 10 μM; for IC50: mean value of two measurements.
Chain of human cytochrome P450 3A4-BQ (P08684 whole entry): as above
Source text: as §1

The test system of data set [8] is key human cytochrome P450 enzymes. As to the kind of experiment: Inhibition of the key human cytochrome P450 enzymes (panel, summary statements). The data set is classed as in vitro ADME.
Source text: as §1

Data set [9] is described as follows: Stability in incubation with human liver microsomes. The class given is in vitro ADME. The following applies: 37 °C, NADPH; for half-life: 40 min. As to the method:
Potent inhibitors (3 and 15) were incubated at 37 °C for 40 min with human liver microsomes in the presence of the cofactor NADPH to evaluate their stability under such conditions. The remaining parent compound was measured using a HPLC method.

The nature of data set [10]: Membrane permeability, Caco-2 cell model. The class given is in vitro ADME. The following applies: human, Caco-2; apical to basolateral, 20 μM. The text has this:
(§2) Compound 3 was studied for its membrane permeability using the Caco-2 cell model.

Data set [11] has as its system Caco-2 cell model. The experiment in a line: Membrane permeability, Caco-2 cell model. The following applies: Caco-2, 20 μM. The data set is classed as in vitro ADME.
Source text: as §2
(In general: Caco-2 monolayers are a common model of the intestinal barrier.)

Data set [12] deals with CYP 2CA (so in the source), CYP3A4. The experiment in a line: Inhibition of the key human cytochrome P450 enzymes (panel, summary statements). The class given is in vitro ADME. The following applies: human; 2CA, 3A4-BFC and 3A4-BQ.
Source text: as §1

T1 sequence (P28845 whole entry): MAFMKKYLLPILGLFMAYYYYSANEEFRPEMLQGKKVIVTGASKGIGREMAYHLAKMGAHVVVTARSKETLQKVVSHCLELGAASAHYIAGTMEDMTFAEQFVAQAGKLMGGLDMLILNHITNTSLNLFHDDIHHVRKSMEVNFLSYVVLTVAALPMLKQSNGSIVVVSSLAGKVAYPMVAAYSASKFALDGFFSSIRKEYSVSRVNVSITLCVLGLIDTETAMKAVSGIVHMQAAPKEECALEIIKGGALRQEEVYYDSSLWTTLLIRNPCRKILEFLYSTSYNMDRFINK
Chain of human cytochrome P450 2C19 (P33261 whole entry): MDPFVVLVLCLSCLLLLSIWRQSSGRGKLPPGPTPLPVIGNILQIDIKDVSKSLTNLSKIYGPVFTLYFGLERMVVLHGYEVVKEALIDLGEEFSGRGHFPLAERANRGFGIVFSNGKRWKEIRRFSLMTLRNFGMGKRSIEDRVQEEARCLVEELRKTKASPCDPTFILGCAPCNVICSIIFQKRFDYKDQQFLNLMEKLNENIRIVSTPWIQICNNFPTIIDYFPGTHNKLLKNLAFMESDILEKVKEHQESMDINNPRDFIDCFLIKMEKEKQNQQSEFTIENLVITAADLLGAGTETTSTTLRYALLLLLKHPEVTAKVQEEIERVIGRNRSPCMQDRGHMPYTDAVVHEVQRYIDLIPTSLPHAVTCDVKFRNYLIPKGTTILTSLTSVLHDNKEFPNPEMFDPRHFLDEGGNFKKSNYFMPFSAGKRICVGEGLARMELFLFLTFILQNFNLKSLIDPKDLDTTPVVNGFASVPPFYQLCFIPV

Take `CN(Cc1cccs1)C(=O)C12CC3CC(CC(C3)C1)C2` [Compound 3]: half-maximal inhibition in [1] (IC50) was put at 0.229 µM. The “Percentage inhibition of 1A2” value in [2] turned out to be 6% ^a. In addition, the “Percentage inhibition of 2C9” value in data set [3] amounted to 62% ^a. Further, the “Percentage inhibition of 2C19” value in data set [4] is 13% ^a. In addition, in data set [5], the “Percentage inhibition of 2D6” value worked out at 2% ^a. This compound also registered a half-inhibitory concentration (IC50) in data set [6] of 10 µM. For the same compound, in [7], the “Percentage inhibition of 3A4-BQ” value is 34% ^a. The “activity against 2C9 and 3A4-BFC (in words)” value in [8] (2C9 and 3A4-BFC) is “weak activity”. For the same compound, in data set [9], the half-life was 1 to 1.17 h and the “stability with human liver microsomes (in words)” value was “moderately stable”. This compound returned a Papp A→B at 20 μM in data set [10] of 33 ×10⁻⁶ cm/s. Moreover, the “permeability (in words)” value in [11] is “high permeability”.
For `Cc1ccc(C2(C(=O)N(C)Cc3cccs3)CC2)cc1` [Compound 41, N-Methyl-N-(thiophen-2-ylmethyl)-1-p-tolylcyclopropanecarboxamide], the IC50 in data set [1] is 0.28 µM; in [2] it was more than 100 µM; in [3] it was 4.5 µM; in data set [4] it was more than 100 µM; in data set [5], 72 µM; in [6], 7.3 µM. Further, the IC50 in data set [7] was 1.6 µM; in [12], 1.6 to 7.3 µM.
Regarding `CN(Cc1cccn1C)C(=O)C12CC3CC(CC(C3)C1)C2` [Compound 15, N-Methyl-N-((1-methyl-1H-pyrrol-2-yl)-methyl)adamantane-1-carboxamide], the IC50 is 0.114 µM in data set [1]; more than 100 µM in data set [2]; more than 100 µM in data set [3]; more than 100 µM in data set [4]; more than 100 µM in data set [5]; 19 µM in [6]. In data set [7], it took 18 µM to reach half-maximal inhibition (IC50). Also, the “fold more potent than compound 16” value in data set [1] (N-methyl amide vs NH analogue 16) is listed as “over 15 times”. Further, in data set [8] (1A2, 2C9, 2C19, 2D6, 3A4-BFC, 3A4-BQ), the “inhibition of the key human cytochrome P450 enzymes (in words)” value was “weak inhibitory activity; also recorded: very weak inhibition; also recorded: very weak inhibitory activity”. Further, the half-life in data set [9] lay within 1 to 1.17 h. Also, in data set [9], the “stability with human liver microsomes (in words)” value is “moderate stability; also recorded: moderately stable; also recorded: relatively stable”.
With `CN(Cc1cccs1)C(=O)CC12CC3CC(CC(C3)C1)C2` [Compound 4, 2-(Adamantan-1-yl)-N-methyl-N-(thiophen-2-ylmethyl)acetamide], the figures for the IC50 in data set [1] and in data set [6] were 0.308 µM and 0.15 µM, respectively. Also, in data set [2], the “Percentage inhibition of 1A2” value was found to be 1% ^a. In addition, in [3], the “Percentage inhibition of 2C9” value was 49% ^a. The “Percentage inhibition of 2C19” value in [4] was determined as 80% ^a. Further, in data set [5], the “Percentage inhibition of 2D6” value stood at 9% ^a. For the same compound, in data set [7], the “Percentage inhibition of 3A4-BQ” value is given as 66% ^a.
`CN(Cc1cccc(N)c1)C(=O)C12CC3CC(CC(C3)C1)C2` [Compound 20, N-(3-Aminobenzyl)-N-methyladam-antane-1-carboxamide] showed a melting point of 105 to 106.5 °C. Moreover, the midpoint of inhibition in data set [1], the IC50, lay at 0.118 µM.
In turn, `CN(Cc1cccn1C)C(=O)CC12CC3CC(CC(C3)C1)C2` [Compound 35, 2-(Adamantan-1-yl)-N-methyl-N-[(1-methyl-1H-pyrrol-2-yl)methyl]acetamide] had a melting point of 75 to 76.5 °C. Moreover, the IC50 in [1] came out at 0.655 µM. Also, in [1] (acetamide vs carboxamide 15), the “fold loss of inhibitory activity compared with 15” value was approximately 6 fold.
